# Experiments:
# [1] = Human hepatocyte assay (metabolic stability); assay type: in vitro ADME; details: human hepatocytes, in vitro intrinsic clearance
# Procedure: The metabolic stability of compounds in human hepatocytes was assessed using the following protocol: • 1. Prepare 10 mM stock solutions of compound and control compounds in appropriate solvent (DMSO). Place incubation medium (L-15 Medium) in a 37° C. water bath, and allow warming for at least 15 minutes prior to use. • 2. Add 80 μL of acetonitrile to each well of the 96-well deep well plate (quenching plate). • 3. In a new 96-well plate, dilute the 10 mM test compounds and the control compounds to 100 μM by combining 198 μL of acetonitrile and 2 μL of 10 mM stock. • 4. Remove a vial of cryopreserved (less than −150° C.) human hepatocytes (LiverPool™ 10 Donor Human hepatocytes obtained from Celsis IVT. Chicago, Ill. (Product No. S01205)) from storage, ensuring that vials remain at cryogenic temperatures until thawing process ensues. As quickly as possible, thaw the cells by placing the vial in a 37° C. water bath and gently shaking the vials. Vials should remain in water bath until all ice crystals have dissolved and are no longer visible. After thawing is complete, spray vial with 70% ethanol, transfer the vial to a bio-safety cabinet. • 5. Open the vial and pour the contents into the 50 mL conical tube containing thawing medium. Place the 50 mL conical tube into a centrifuge and spin at 100 g for 10 minutes. […] Using Cellometer® Vision, count cells and determine the viable cell density. Cells with poor viability (<80% viability) are not acceptable for use. […] Transfer 247.5 μL of hepatocytes into each well of a 96-well cell culture plate. Place the plate on Eppendorf Thermomixer Comfort plate shaker to allow the hepatocytes to warm for 10 minutes. • 8. Add 2.5 μL of 100 μM test compound or control compounds into an incubation well containing cells, mix to achieve a homogenous suspension at 0.5 min, which when achieved, will define the 0.5 min time point. At the 0.5 min time, transfer 20 μL of incubated mixture to wells in a “Quenching plate” followed by vortexing. • 9. Incubate the plate at 37° C. at 900 rpm on an Eppendorf Thermomixer Comfort plate shaker. […] Centrifuge the quenching plates for 20 minutes at 4,000 rpm. 4 different compounds are pooled into one cassette and used for LC/MS/MS analysis.
# All calculations were carried out using Microsoft Excel. Peak areas were determined from extracted ion chromatograms. In vitro intrinsic clearance (in vitro Clint, in […]) of parent compound was determined by regression analysis of the Ln percent parent disappearance vs. time curve.
# V=incubation volume (0.25 mL);
# N=number of hepatocytes per well (0.25×10^6 cells).
# [2] = log D (shake flask, octanol/aqueous buffer); assay type: physicochemical; details: 1-octanol/aqueous buffer
# Text: Physical Properties log D
# The lipophilicity of a drug is an important physical property which may influence many biological and metabolic properties of a compound, for example the absorption, distribution, metabolism, excretion and toxicity profiles of a compound. The distribution coefficient between 1-octanol and aqueous buffer, Log DO/W, at pH 7.4, is the most commonly used measurement of the lipophilicity of a compound. The current method for measurement of Log DO/W is based on the traditional shake flask technique, but with the modification of measuring compounds in mixtures of ten at a time using UPLC with quantitative mass spectrometry (MS) as a method to measure the relative octanol and aqueous concentrations. […] An additional QC sample Caffeine, with low Log D, are used and randomly placed in all runs. The method has been thoroughly validated against the previous shake flask methodologies.
Clint [1] [μL/min/10^6 cells],LogD pH 7.4 [2],SMILES
3,,"C[C@@H]1Cc2c(ccc3[nH]ncc23)[C@@H](c2ncc(NC3CN(CCCF)C3)cc2F)N1CC1(F)CC1 [Example 18, 5-fluoro-6-((6S,8R)-7-((1-fluorocyclopropyl)methyl)-8-methyl-6,7,8,9-tetrahydro-3H-pyrazolo[4,3-f]isoquinolin-6-yl)-N-(1-(3-fluoropropyl)azetidin-3-yl)pyridin-3-amine]"
6,,"COCC(F)(F)CN1[C@H](c2ccc(NC3CN(CCCF)C3)cn2)c2ccc3[nH]ncc3c2C[C@H]1C [Example 2, 6-((6S,8R)-7-(2,2-difluoro-3-methoxypropyl)-8-methyl-6,7,8,9-tetrahydro-3H-pyrazolo[4,3-f]isoquinolin-6-yl)-N-(1-(3-fluoropropyl)azetidin-3-yl)pyridin-3-amine]"
2,,"COc1cc(NC2CN(CCCF)C2)ccc1[C@@H]1c2ccc3[nH]ncc3c2C[C@@H](C)N1CC1(F)CC1 [Example 6, N-(4-((6S,8R)-7-((l-fluorocyclopropyl)methyl)-8-methyl-6,7,8,9-tetrahydro-3H-pyrazolo[4,3-f]isoquinolin-6-yl)-3-methoxyphenyl)-1-(3-fluoropropyl)azetidin-3-amine]"
11,,"COCC(F)(F)CN1[C@H](c2ccc(NC3CN(CCCF)C3)cc2OC)c2ccc3[nH]ncc3c2C[C@H]1C [Example 1, N-(4-((6S,8R)-7-(2,2-difluoro-3-methoxypropyl)-8-methyl-6,7,8,9-tetrahydro-3H-pyrazolo[4,3-f]isoquinolin-6-yl)-3-methoxyphenyl)-1-(3-fluoropropyl)azetidin-3-amine]"
4,,"C[C@@H]1Cc2c(ccc3[nH]ncc23)[C@@H](c2ccc(NC3CN(CCCF)C3)cc2)N1CC(F)F [Example 48, N-(4-((6R,8R)-7-(2,2-difluoroethyl)-8-methyl-6,7,8,9-tetrahydro-3H-pyrazolo[4,3-f]isoquinolin-6-yl)phenyl)-1-(3-fluoropropyl)azetidin-3-amine]"
7,,"C[C@@H]1Cc2c(ccc3[nH]ncc23)[C@@H](c2c(F)cc(NC3CN(CCCF)C3)cc2F)N1CC1(F)CC1 [Example 11, N-(3,5-difluoro-4-((6S,8R)-7-((1-fluorocyclopropyl)methyl)-8-methyl-6,7,8,9-tetrahydro-3H-pyrazolo[4,3-f]isoquinolin-6-yl)phenyl)-1-(3-fluoropropyl)azetidin-3-amine]"
,4,"COC[C@](C)(F)CN1[C@H](c2ccc(OC3CN(CCCF)C3)cc2OC)c2ccc3[nH]ncc3c2C[C@H]1C (single isomer, unassigned) [Example 13]"

SMILES,Clint [1] [μL/min/10^6 cells],LogD pH 7.4 [2]
"COc1cc(NC2CN(CCCF)C2)ccc1[C@@H]1c2ccc3[nH]ncc3c2C[C@@H](C)N1CC(F)(F)F [Example 28, 1-(3-fluoropropyl)-N-(3-methoxy-4-((6S,8R)-8-methyl-7-(2,2,2-trifluoroethyl)-6,7,8,9-tetrahydro-3H-pyrazolo[4,3-f]isoquinolin-6-yl)phenyl)azetidin-3-amine]",5,
"COc1cc(NC2CN(CCCF)C2)ccc1[C@@H]1c2ccc3[nH]ncc3c2C[C@@H](C)N1CC(F)F [Example 21, N-(4-((6S,8R)-7-(2,2-difluoroethyl)-8-methyl-6,7,8,9-tetrahydro-3H-pyrazolo[4,3-f]isoquinolin-6-yl)-3-methoxyphenyl)-1-(3-fluoropropyl)azetidin-3-amine]",6,
"C[C@@H]1Cc2c(ccc3[nH]ncc23)[C@@H](c2ccc(NC3CN(CCCF)C3)cn2)N1CC1(F)CC1 [Example 3, 6-((6S,8R)-7-((l-fluorocyclopropyl)methyl)-8-methyl-6,7,8,9-tetrahydro-3H-pyrazolo[4,3-f]isoquinolin-6-yl)-N-(1-(3-fluoropropyl)azetidin-3-yl)pyridin-3-amine]",5,
"C[C@@H]1Cc2c(ccc3[nH]ncc23)[C@@H](c2ccc(NC3CN(CCCF)C3)cn2)N1CC(F)F [Example 25, 6-((6S,8R)-7-(2,2-difluoroethyl)-8-methyl-6,7,8,9-tetrahydro-3H-pyrazolo[4,3-f]isoquinolin-6-yl)-N-(1-(3-fluoropropyl)azetidin-3-yl)pyridin-3-amine]",5,
"COc1cc(NC2CN(CCCF)C2)ccc1[C@@H]1c2ccc3[nH]ncc3c2C[C@@H](C)N1CC(C)(F)F [Example 19, N-(4-((6S,8R)-7-(2,2-difluoropropyl)-8-methyl-6,7,8,9-tetrahydro-3H-pyrazolo[4,3-f]isoquinolin-6-yl)-3-methoxyphenyl)-1-(3-fluoropropyl)azetidin-3-amine]",5,

# Reference: patent publication US10590130B2, “Chemical compounds” (AstraZeneca AB, priority 2016, dated 2020)
